Results taken from patent US4725583A, “Functionalized peptidylaminoalcohols” (Abbott Laboratories, priority 1986, dated 1988).
pIC50: −log10 of the molar value.

biological target: T1, human renal renin (Homo sapiens, UniProt P00797); assay: In vitro inhibition of human renal renin (angiotensin I formation measured by radioimmunoassay); assay type: biochemical; details: human renal renin with human renin substrate (angiotensinogen), 37° C., pH 6.0
T1 construct: human renal renin, free from acid proteolytic activity; from tissue
T1 sequence (P00797 67-406): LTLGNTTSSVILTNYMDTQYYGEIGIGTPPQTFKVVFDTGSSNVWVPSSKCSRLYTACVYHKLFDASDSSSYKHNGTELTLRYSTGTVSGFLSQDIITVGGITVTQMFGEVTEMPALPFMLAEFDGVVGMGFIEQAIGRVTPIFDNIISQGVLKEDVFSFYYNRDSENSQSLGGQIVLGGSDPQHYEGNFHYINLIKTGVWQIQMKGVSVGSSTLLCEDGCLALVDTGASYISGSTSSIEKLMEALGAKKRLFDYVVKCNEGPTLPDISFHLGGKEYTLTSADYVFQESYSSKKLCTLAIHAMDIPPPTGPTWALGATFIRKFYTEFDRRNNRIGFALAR

Structure (SMILES) | pIC50
CC(C)C[C@H](NC(=O)[C@H](C)NC(=O)[C@H](Cc1ccccc1)NC(=O)OC(C)(C)C)C(O)C=O (stereo partly drawn) [Example 3, Boc-Phe-Ala Amide of (3S)-Amino-2-hydroxy-5-methylhexanal] | 8.00
CC(C)CC(=O)C(O)[C@H](CC1CCCCC1)NC(=O)[C@H](Cc1cnc[nH]1)NC(=O)[C@H](Cc1ccccc1)NC(=O)OC(C)(C)C (stereo partly drawn) [Example 19, Boc-Phe-His Amide of (2S)-Amino-1-cyclohexyl-3-hydroxy-6-methylheptan-4-one] | 8.00
C[C@H](NC(=O)[C@H](Cc1ccccc1)NC(=O)OC(C)(C)C)C(=O)N[C@@H](CC1CCCCC1)[C@@H](O)CBr [Example 16, Boc-Phe-Ala Amide of (2R,3S)-3-Amino-1-bromo-4-cyclohexyl-2-hydroxybutane] | 6.15
C[C@H](NC(=O)[C@H](Cc1ccccc1)NC(=O)OC(C)(C)C)C(=O)N[C@@H](CC1CCCCC1)[C@@H](O)CCl [Example 14, Boc-Phe-Ala Amide of (2R,3S)-3-Amino-1-chloro-4-cyclohexyl-2-hydroxybutane] | 6.40
